System: yeast strain, Saccharomyces cerevisiae
Assay: Effect of disinfectant on cell viability
Assay type: cell-based
Conditions: 5 mL cells mixed with 5 mL disinfectant solution
Experimental: A study was conducted to determine the effect of disinfectant on the viability of a yeast strain, Saccharomyces cerevisiae. The primary culture was prepared by incubating seed stock of the yeast in 10 mL tubes containing YPS media at 30° C. for 24 hours in an incubator shaker (Innova 4200, New Brunswick Scientific, Edison, N.J.). Klett flasks containing 50 mL broth were then inoculated with the aliquots of primary culture, and the flasks were incubated at 30° C. in an incubator shaker. The cells were grown until the Klett readings reached about 220. Dey-Engley neutralizing broth (DE broth) (Sigma-Aldrich Corp., St. Louis, Mo.) was used as the neutralizing dilution agent. […] Thin plates were also prepared with the DE broth/agar. […] Cells (5 mL) were mixed with 5 mL sterile PBS or 5 mL of the disinfectant solutions, and incubated for various time points (0.5, 1, 2.5, 5, or 10 minutes). […] After drying, the plates were inverted and incubated at 30° C. The black bar denotes the maximum detection limit of this test.

Measured: cell viability (cells counted on DE broth/agar plates)

CCO [70% alcohol, ethanol]
<10: 0.5 minutes incubation | 1 minute incubation | 2.5 minutes incubation | 5 minutes incubation | 10 minutes incubation
